Source: patent US9919998B2, “Antibacterial agents: Nα-aroyl-N-aryl-phenylalaninamides” (priority 2014, dated 2018)
Values after ≈ are worked out from the molar mass of the structure shown.

How the values were obtained:
Type in all cases: cell-based
[1] = system: Mycobacterium tuberculosis H37Rv; assay: Microplate Alamar Blue assay (MABA) MIC, M. tuberculosis; details: read-out: MIC Mycobacterium tuberculosis H37Rv
Description: (§1) Minimal inhibitory concentrations (MICs) in Mycobacterium tuberculosis H37Rv and Mycobacterium avium ATCC 25291 were quantified using microplate Alamar Blue assays as described (MABA; [Collins, L. & Franzblau, S. (1997) Microplate Alamar Blue assay versus BACTEC 460 system for high-throughput screening of compounds against Mycobacterium tuberculosis and Mycobacterium avium. Antimicrob. Agents Chemother. 41, 1004-1009]).

[2] = system: Mycobacterium avium ATCC 25291; assay: Microplate Alamar Blue assay (MABA) MIC, M. avium; details: ATCC25291, M. avium ATCC 25291
Description: as §1

[3] = system: Mycobacterium smegmatis ATCC 19420; assay: Broth microdilution MIC, M. smegmatis; details: Mycolicibacterium smegmatis, ATCC19420, M. smegmatis ATCC 19420; read-out: MIC Mycobacterium smegmatis ATCC 19420
Description: MICs in Mycobacterium smegmatis ATCC 19420 and Mycobacterium smegmatis ATCC 19420 derivatives were quantified using broth microdilution assays as described [Clinical and Laboratory Standards Institute (CLSI/NCCLS) (2009) Methods for Dilution Antimicrobial Susceptibility Tests for Bacteria That Grow Aerobically; Approved Standard, Eighth Edition. CLIS Document M07-A8 (CLIS, Wayne Pa.)].

[4] = system: Vero E6 ATCC CRL1586 cells; assay: Mammalian-cell cytotoxicity, minimal cytotoxic concentration (CellTiter96)
Description: Minimal cytotoxic concentrations (MCCs) against mammalian cells in culture were determined using Vero E6 ATCC CRL1586 cells and the CellTiter96 assay kit (Promega, Inc.). […]

Row | SMILES | MIC [1] [µg/mL] | MIC [2] [µg/mL] | MIC [3] [µg/mL] | MCC mammalian cells Vero E6 ATCC CRL1586 [4] [µg/mL]
1 | COc1ccccc1NC(=O)C(Cc1ccccc1)NC(=O)c1ccccc1C (centres unmarked) [IX-68, N-(1-((2-methoxyphenyl)amino)-1-oxo-3-phenylpropan-2-yl)-2-methylbenzamide] | 3.12 (≈ 8.04 µM) | 6.25 (≈ 16.1 µM) | 0.39 (≈ 1 µM) | 17
2 | Cc1ccccc1C(=O)NC(Cc1ccccc1)C(=O)Nc1cccc2cnccc12 (centres unmarked) [IX-69, N-(1-(isoquinolin-5-ylamino)-1-oxo-3-phenylpropan-2-yl)-2-methylbenzamide] | 3.12 (≈ 7.63 µM) | 3.12 (≈ 7.63 µM) | 0.39 (≈ 0.952 µM) | >100
3 | Cc1ccccc1C(=O)NC(Cc1ccccc1)C(=O)Nc1cccc2ncccc12 (centres unmarked) [IX-70, 2-methyl-N-(1-oxo-3-phenyl-1-(quinolin-5-ylamino)propan-2-yl)benzamide] | 12.5 (≈ 30.5 µM) | 25 (≈ 61.1 µM) | 0.39 (≈ 0.952 µM) | 63
4 | Cc1ccccc1C(=O)NC(Cc1ccccc1)C(=O)Nc1cccc2c1OCCO2 (centres unmarked) [IX-71, N-(1-((2,3-dihydrobenzo[b][1,4]dioxin-5-yl)amino)-1-oxo-3-phenylpropan-2-yl)-2-methylbenzamide] | 1.56 (≈ 3.75 µM) | 3.12 (≈ 7.5 µM) | 0.39 (≈ 0.936 µM) | 10
5 | O=C(NC(Cc1ccccc1)C(=O)Nc1cccc2c1OCO2)c1ccccc1 (centres unmarked) [IX-72, N-(1-(benzo[d][1,3]dioxol-4-ylamino)-1-oxo-3-phenylpropan-2-yl)benzamide] | 6.25 (≈ 16.1 µM) | 3.12 (≈ 8.05 µM) | 0.095 (≈ 0.245 µM) | 33
6 | O=C(NC(Cc1ccccc1)C(=O)Nc1cc(F)cc2ncccc12)c1ccccc1 (centres unmarked) [IX-75, N-(1-((7-fluoroquinolin-5-yl)amino)-1-oxo-3-phenylpropan-2-yl)benzamide] | 0.78 (≈ 1.89 µM) | 0.78 (≈ 1.89 µM) | 0.39 (≈ 0.943 µM) | >100
7 | Cc1ccc(F)cc1NC(=O)C(Cc1ccccc1)NC(=O)c1cccs1 (centres unmarked) [IX-79, N-(1-((5-fluoro-2-methylphenyl)amino)-1-oxo-3-phenylpropan-2-yl)thiophene-2-carboxamide] | 1.56 (≈ 4.08 µM) | 1.56 (≈ 4.08 µM) | 0.19 (≈ 0.497 µM) | 23
8 | Cc1ccc(F)cc1NC(=O)C(Cc1ccccc1)NC(=O)c1cccc2[nH]ccc12 (centres unmarked) [IX-80, N-(1-((5-fluoro-2-methylphenyl)amino)-1-oxo-3-phenylpropan-2-yl)-1H-indole-4-carboxamide] | 1.56 (≈ 3.75 µM) | 3.12 (≈ 7.52 µM) | 0.195 (≈ 0.469 µM) | 33
9 | Cc1ccc(F)cc1NC(=O)C(Cc1ccccc1)NC(=O)c1ccccc1F (centres unmarked) [IX-81, 2-fluoro-N-(1-((5-fluoro-2-methylphenyl)amino)-1-oxo-3-phenylpropan-2-yl)benzamide] | 1.56 (≈ 3.96 µM) | 3.12 (≈ 7.92 µM) | 0.195 (≈ 0.494 µM) | 38
10 | Cc1ccc(F)cc1NC(=O)C(Cc1ccccc1)NC(=O)c1ccccc1Cl (centres unmarked) [IX-82, 2-chloro-N-(1-((5-fluoro-2-methylphenyl)amino)-1-oxo-3-phenylpropan-2-yl)benzamide] | 1.56 (≈ 3.8 µM) | 3.12 (≈ 7.61 µM) | 0.39 (≈ 0.949 µM) | 20
11 | Cc1ccc(F)cc1NC(=O)C(Cc1ccccc1)NC(=O)c1ccccc1C (centres unmarked) [IX-83, N-(1-((5-fluoro-2-methylphenyl)amino)-1-oxo-3-phenylpropan-2-yl)-2-methylbenzamide] | 0.78 (≈ 2 µM) | 1.56 (≈ 4 µM) | 0.195 (≈ 0.499 µM) | 1.4
12 | O=C(NC(Cc1ccccc1)C(=O)Nc1cccc2ncccc12)c1cccs1 (centres unmarked) [IX-85, N-(1-oxo-3-phenyl-1-(quinolin-5-ylamino)propan-2-yl)thiophene-2-carboxamide] | 12.5 (≈ 31.1 µM) | 25 (≈ 62.3 µM) | 0.39 (≈ 0.971 µM) | 40
13 | O=C(NC(Cc1ccccc1)C(=O)Nc1cccc2c1CCCC2)c1cccs1 (centres unmarked) [IX-86, N-(1-oxo-3-phenyl-1-((5,6,7,8-tetrahydronaphthalen-1-yl)amino)propan-2-yl)thiophene-2-carboxamide] | > 50 | > 50 | 0.78 (≈ 1.93 µM) | 50
14 | O=C(NC(Cc1ccccc1)C(=O)Nc1cccc2[nH]ccc12)c1ccccc1F (centres unmarked) [IX-91, N-(1-((1H-indol-4-yl)amino)-1-oxo-3-phenylpropan-2-yl)-2-fluorobenzamide] | 50 (≈ 125 µM) | 50 (≈ 125 µM) | 1.56 (≈ 3.89 µM) | 65
